Like-named read-outs stand apart in the source and are kept apart here. Starred links: 1 amine or outer side, 2 acyl side, 3 side chain; linkers in the order of their positions; H or OH if unused. Positions of bridges follow the written chain, without caps; N, C: chain ends. Non-standard residues stand in square brackets, D forms with d. Residues, ends and D or L forms follow the SMILES beside them. *: point of attachment. NMeF = CN[C@@H](Cc1ccccc1)C(=O)O; NMeGABA = CN(CCCC(=O)[*:2])[*:1]; NMeβAla = CN(CCC(=O)[*:2])[*:1]; NMeL = CN[C@@H](CC(C)C)C(=O)O; NMeV = CN[C@H](C(=O)O)C(C)C; NMeA = CN[C@@H](C)C(=O)O; Piperidide = C1CCN(*)CC1; dNMeA = CN[C@H](C)C(=O)O; Sar = CNCC(=O)O; tBu = CC(C)(C)*
Tests used:
[1] = PAMPA (parallel artificial membrane permeability assay); assay type: in vitro ADME; settings: PAMPA
Outline: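 Artificial membrane was 10% (w/v) egg lecithin plus 0.5% (w/v) cholesterol in dodecane on a PVDF filter. A 10 mM DMSO stock was added at 0.5% (v/v) to donor buffer (50 mM MOPSO, pH 6.5, 5.0% glycocholic acid). After 18 h at 37 °C, LC/MS or LC/UV gave donor and acceptor levels for Pe.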

[2] = Metabolic stability in human hepatic microsome; assay type: in vitro ADME; settings: microsomes
[3] = membrane permeation rate (Pe), 50 mM MOPSO buffer pH 6.5 with 5.0% glycocholic acid, 37° C., 18 hours, read-out: iPAMPA Pe
[4] = pH 7.4, human hepatic microsome, NADPH(+), read-out: CL NADPH(+)

Compound | Papp at 18 hours, 50 µM [1, 3] [×10⁻⁶ cm/s] | microsomal CLint at 1 uM [2, 4] [µL/min/mg] | Papp at 18 hours, 50 µM ([1]; pH 6.5) [×10⁻⁶ cm/s] | microsomal CLint at 1 uM ([2]; human, pH 7.4, CL NADPH(+)) [µL/min/mg]
CC[C@H](C)[C@@H]1NC(=O)[C@H](C)N(C)C(=O)[C@H](Cc2ccccc2)N(C)C(=O)[C@H](C)N(C)C(=O)C[C@@H](C(=O)N(C)[C@@H](Cc2ccccc2)C(=O)N(C)[C@@H](Cc2ccccc2)C(=O)N[C@@H](C)C(=O)N2CCCCC2)NC(=O)[C@H](C)N(C)C(=O)[C@H](CC(C)C)N(C)C(=O)[C@H](C)N(C)C(=O)[C@H]([C@@H](C)O)NC(=O)[C@H](C)N(C)C1=O [DP-395] ([NMeA][NMeF][NMeA]I[NMeA]T[NMeA][NMeL][NMeA]D[NMeF][NMeF]A-Piperidide; lactam N-10) | 19 | 23 |  | 
CC(C)C[C@H]1C(=O)NCC(=O)N[C@H](C(=O)N(C)[C@@H](Cc2ccccc2)C(=O)N(C)[C@@H](Cc2ccccc2)C(=O)N[C@@H](C)C(=O)N2CCCCC2)CC(=O)N[C@@H](C)C(=O)N[C@@H]([C@@H](C)O)C(=O)N(C)[C@@H](C)C(=O)N(C)[C@@H](Cc2ccccc2)C(=O)N[C@@H](C(C)C)C(=O)N(C)[C@@H](Cc2ccccc2)C(=O)N1C [DP-396] (AT[NMeA][NMeF]V[NMeF][NMeL]GD[NMeF][NMeF]A-Piperidide; lactam N-9) |  |  | 55 | 141
CC(C)C[C@H]1C(=O)N[C@@H](C(C)C)C(=O)N(C)[C@@H](Cc2ccccc2)C(=O)N(C)[C@@H](CC(C)C)C(=O)N(C)[C@@H](CC(C)C)C(=O)N[C@H](C(=O)N(C)[C@@H](Cc2ccccc2)C(=O)N(C)[C@@H](Cc2ccccc2)C(=O)N[C@@H](C)C(=O)N2CCCCC2)CC(=O)N(C)CCC(=O)N[C@@H]([C@@H](C)O)C(=O)N(C)[C@@H](C)C(=O)N1C [DP-397] ([NMeβAla]T[NMeA][NMeL]V[NMeF][NMeL][NMeL]D[NMeF][NMeF]A-Piperidide; lactam N-9) |  |  | 11 | 92
CC(C)C[C@H]1C(=O)N(C)[C@@H](CC(C)C)C(=O)N[C@@H]([C@@H](C)O)C(=O)N(C)[C@@H](C)C(=O)N[C@H](C(=O)N(C)[C@@H](Cc2ccccc2)C(=O)N(C)[C@@H](Cc2ccccc2)C(=O)N[C@@H](C)C(=O)N2CCCCC2)CC(=O)N(C)CCC(=O)N(C)CC(=O)N(C)[C@@H](Cc2ccccc2)C(=O)N[C@@H](C)C(=O)N1C [DP-398] ([NMeβAla][Sar][NMeF]A[NMeL][NMeL]T[NMeA]D[NMeF][NMeF]A-Piperidide; lactam N-9) | 24 | 123 |  | 
CC(C)C[C@H]1C(=O)N[C@@H](C(C)C)C(=O)N(C)[C@@H](C)C(=O)N(C)[C@@H](C)C(=O)N[C@@H]([C@@H](C)O)C(=O)N(C)[C@@H](C)C(=O)N[C@H](C(=O)N(C)[C@@H](Cc2ccccc2)C(=O)N(C)[C@@H](Cc2ccccc2)C(=O)N[C@@H](C)C(=O)N2CCCCC2)CC(=O)N(C)[C@H](C)C(=O)N(C)[C@@H](Cc2ccccc2)C(=O)N1C [DP-400] ([dNMeA][NMeF][NMeL]V[NMeA][NMeA]T[NMeA]D[NMeF][NMeF]A-Piperidide; lactam N-9) | 15 | 24 |  | 
CC(C)C[C@H]1C(=O)NCC(=O)N[C@H](C(=O)N(C)[C@@H](Cc2ccccc2)C(=O)N(C)[C@@H](Cc2ccccc2)C(=O)N[C@@H](C)C(=O)N2CCCCC2)CC(=O)N[C@H](C(C)C)C(=O)N[C@@H]([C@@H](C)O)C(=O)N(C)[C@@H](C)C(=O)N(C)[C@@H](Cc2ccccc2)C(=O)N[C@@H](C(C)C)C(=O)N(C)[C@@H](Cc2ccccc2)C(=O)N1C [DP-401] ([dV]T[NMeA][NMeF]V[NMeF][NMeL]GD[NMeF][NMeF]A-Piperidide; lactam N-9) |  |  | 8.6 | 145
CC(C)C[C@H]1C(=O)NCC(=O)N(C)[C@@H](Cc2ccccc2)C(=O)N(C)[C@@H](Cc2ccccc2)C(=O)N[C@@H]([C@@H](C)O)C(=O)N(C)[C@@H](C)C(=O)N[C@H](C(=O)N(C)[C@@H](Cc2ccccc2)C(=O)N(C)[C@@H](Cc2ccccc2)C(=O)N[C@@H](C)C(=O)N2CCCCC2)CC(=O)N(C)CCCC(=O)N[C@@H](C(C)C)C(=O)N1C [DP-402] ([NMeGABA]V[NMeL]G[NMeF][NMeF]T[NMeA]D[NMeF][NMeF]A-Piperidide; lactam N-9) |  |  | 24 | 185
CC(C)C[C@H]1C(=O)N(C)[C@@H](C)C(=O)N(C)[C@@H](CC(C)C)C(=O)N[C@H](C(=O)N(C)[C@@H](Cc2ccccc2)C(=O)N(C)[C@@H](Cc2ccccc2)C(=O)N[C@@H](C)C(=O)N2CCCCC2)CC(=O)N(C)CCCC(=O)N[C@@H]([C@@H](C)O)C(=O)N(C)[C@@H](Cc2ccccc2)C(=O)N(C)[C@@H](CC(C)C)C(=O)N[C@@H](C(C)C)C(=O)N1C [DP-403] ([NMeGABA]T[NMeF][NMeL]V[NMeL][NMeA][NMeL]D[NMeF][NMeF]A-Piperidide; lactam N-9) | 18 | 57 |  | 
CC(C)C[C@H]1C(=O)N[C@@H]([C@@H](C)O)C(=O)N[C@H](C(=O)N(C)[C@@H](Cc2ccccc2)C(=O)N(C)[C@@H](Cc2ccccc2)C(=O)N[C@@H](C)C(=O)N2CCCCC2)CC(=O)N(C)CCCC(=O)N(C)[C@@H](C)C(=O)N(C)[C@@H](Cc2ccccc2)C(=O)N[C@@H](C(C)C)C(=O)N(C)[C@@H](CC(C)C)C(=O)N(C)CC(=O)N1C [DP-404] ([NMeGABA][NMeA][NMeF]V[NMeL][Sar][NMeL]TD[NMeF][NMeF]A-Piperidide; lactam N-9) | 20 | 107 |  | 
CC(C)C[C@H]1C(=O)N[C@@H]([C@@H](C)O)C(=O)N(C)[C@@H](C)C(=O)N(C)[C@@H](CC(C)C)C(=O)N[C@@H](C(C)C)C(=O)N[C@H](C(=O)N(C)[C@@H](Cc2ccccc2)C(=O)N(C)[C@@H](Cc2ccccc2)C(=O)N[C@@H](C)C(=O)N2CCCCC2)CC(=O)N(C)[C@@H](C)C(=O)N(C)[C@@H](Cc2ccccc2)C(=O)N(C)CC(=O)N1C [DP-405] ([NMeA][NMeF][Sar][NMeL]T[NMeA][NMeL]VD[NMeF][NMeF]A-Piperidide; lactam N-9) | 26 | 83 |  | 
CC(C)C[C@H]1C(=O)N[C@@H]([C@@H](C)O)C(=O)N[C@H](C(=O)N(C)[C@@H](Cc2ccccc2)C(=O)N(C)[C@@H](Cc2ccccc2)C(=O)N[C@@H](C)C(=O)N2CCCCC2)CC(=O)N(C)[C@@H](C)C(=O)N(C)CC(=O)N(C)[C@@H](Cc2ccccc2)C(=O)N(C)[C@@H](C)C(=O)N[C@@H](C)C(=O)N(C)[C@@H](C)C(=O)N1C [DP-406] ([NMeA][Sar][NMeF][NMeA]A[NMeA][NMeL]TD[NMeF][NMeF]A-Piperidide; lactam N-9) | 4.4 | 11 |  | 
CC(C)C[C@H]1C(=O)N[C@@H](C(C)C)C(=O)N[C@H](C(=O)N(C)[C@@H](Cc2ccccc2)C(=O)N(C)[C@@H](Cc2ccccc2)C(=O)N[C@@H](C)C(=O)N2CCCCC2)CC(=O)N(C)CC(=O)N(C)[C@@H](CC(C)C)C(=O)N(C)[C@@H](Cc2ccccc2)C(=O)N[C@@H]([C@@H](C)O)C(=O)N(C)[C@@H](C)C(=O)N(C)CC(=O)N1C [DP-407] ([Sar][NMeL][NMeF]T[NMeA][Sar][NMeL]VD[NMeF][NMeF]A-Piperidide; lactam N-9) | 38 | 29 |  | 
CC(C)C[C@@H]1NC(=O)[C@H](C)N(C)C(=O)[C@H](C(C)C)N(C)C(=O)CN(C)C(=O)[C@H](Cc2ccccc2)NC(=O)[C@H](C(C)C)N(C)C(=O)[C@H](C)N(C)C(=O)[C@H]([C@@H](C)O)NC(=O)[C@H](Cc2ccccc2)N(C)C(=O)[C@H](C)NC(=O)CCN(C)C(=O)C[C@@H](C(=O)N2CCCCC2)NC1=O [DP-408] ([NMeβAla]A[NMeF]T[NMeA][NMeV]F[Sar][NMeV][NMeA]LD-Piperidide; lactam N-12) |  |  | 1.9 | 14
CC(C)C[C@H]1C(=O)N(C)[C@@H](C)C(=O)N[C@@H]([C@@H](C)O)C(=O)N(C)[C@@H](C)C(=O)N(C)[C@@H](C(C)C)C(=O)N[C@@H](COC(C)(C)C)C(=O)N[C@H](C(=O)N2CCCCC2)CC(=O)N(C)[C@H](C)C(=O)N(C)[C@@H](Cc2ccccc2)C(=O)N[C@@H](C)C(=O)N(C)[C@@H](C)C(=O)N[C@@H](Cc2ccccc2)C(=O)N1C [DP-409] ([dNMeA][NMeF]A[NMeA]F[NMeL][NMeA]T[NMeA][NMeV]S(tBu)D-Piperidide; lactam N-12) |  |  | 13 | 28
CC(C)C[C@H]1C(=O)N(C)[C@@H](C(C)C)C(=O)N[C@@H](C(C)C)C(=O)N(C)CC(=O)N(C)[C@@H](C)C(=O)N[C@@H]([C@@H](C)O)C(=O)N(C)[C@@H](C)C(=O)N[C@H](C(=O)N2CCCCC2)CC(=O)N(C)[C@@H](C)C(=O)N(C)[C@@H](C)C(=O)N(C)[C@@H](Cc2ccccc2)C(=O)N[C@@H](C)C(=O)N1C [DP-410] ([NMeA][NMeA][NMeF]A[NMeL][NMeV]V[Sar][NMeA]T[NMeA]D-Piperidide; lactam N-12) | 1.4 | 19 |  | 
CC[C@H](C)[C@@H]1NC(=O)[C@H](CC(C)C)NC(=O)CCN(C)C(=O)C[C@@H](C(=O)N2CCCCC2)NC(=O)[C@H](CC(C)C)NC(=O)[C@H](Cc2ccccc2)NC(=O)[C@H]([C@@H](C)O)NC(=O)[C@H](CC(C)C)NC(=O)[C@H](C(C)C)NC(=O)[C@H](CC(C)C)NC(=O)CN(C)C1=O [DP-411] ([NMeβAla]LI[Sar]LVLTFLD-Piperidide; lactam N-11) | 8.4 | 114 |  | 
CC[C@H](C)[C@@H]1NC(=O)[C@H](CC(C)C)N(C)C(=O)[C@H](C(C)C)NC(=O)[C@H](CC(C)C)NC(=O)[C@H](CC(C)C)NC(=O)[C@H]([C@@H](C)O)NC(=O)[C@H](Cc2ccccc2)NC(=O)[C@H](CC(C)C)NC(=O)[C@H](C(C)C)N(C)C(=O)CCN(C)C(=O)C[C@@H](C(=O)N2CCCCC2)NC1=O [DP-412] ([NMeβAla][NMeV]LFTLLV[NMeL]ID-Piperidide; lactam N-11) | 26 | 122 |  | 

— patent US9409952B2, “Peptide-compound cyclization method” (Chugai Seiyaku Kabushiki Kaisha, priority 2011, dated 2016)
